From patent US20230279020A9, “CARM1 INHIBITORS AND USES THEREOF” (Epizyme, Inc., priority 2013, published 2023)

Molecular target: Human CARM1 (PRMT4) (Homo sapiens (Human), UniProt Q86X55)
Assay: CARM1 enzyme assay on peptide substrate (3H-SAM Flashplate)
Settings: Biochemical potencies, classification codes; read-out: Biochem IC50
Description: S-adenosylmethionine (SAM), S-adenosylhomocysteine (SAH), bicine, Tween20, dimethylsulfoxide (DMSO), bovine skin gelatin (BSG), sodium butyrate and Tris(2-carboxyethyl)phosphine hydrochloride solution (TCEP) were purchased from Sigma-Aldrich at the highest level of purity possible. ^3H-SAM was purchase from American Radiolabeled Chemicals with a specific activity of 80 Ci/mmol. 384-well streptavidin Flashplates were purchased from PerkinElmer.
Peptide representative of human histone H3 residues 16-30 was synthesized with an N-terminal linker-affinity tag motif and a C-terminal amide cap by 21st Century Biochemicals. […] The sequence was Biot-Ahx-[…]-amide and contained a monomethylated arginine at position 26 (SEQ ID NO.:1).
The gene sequence encoding isoform1 containing a deletion of amino acids 539-561 was amplified subsequently and subcloned into pFastBacMam (Viva Biotech).
Recombinant baculovirus were generated according to Bac-to-Bac kit instructions (Life Technologies). Protein over-expression was accomplished by infecting exponentially growing HEK 293F cell culture at 1.3×10^6cell/ml with virus (MOI=10) in the presence of 8 mM sodium butyrate. Infections were carried out at 37° C. for 48 hours, harvested by centrifugation, and stored at −80° C. for purification.
Expressed full-length human Flag- and His-tagged CARM1 protein was purified from cell paste by anti-flag M2 affinity chromatography with resin equilibrated with buffer containing 20 mM Tris, 150 mM NaCl, 5% glycerol, pH 7.8. Column was washed with 500 mM NaCl in buffer A and Flag-CARM1-His was eluted with 200 ug/ml FLAG peptide in buffer A. Pooled fractions were dialyzed in 20 mM Tris, 150 mM NaCl, 5% glycerol and 1 mM DTT, pH 7.8.
The assays were all performed in a buffer consisting of 20 mM Bicine (pH=7.6), 1 mM TCEP, 0.005% BSG, and 0.002% Tween 20, prepared on the day of use. Compounds in 100% DMSO (1 ul) were spotted into a polypropylene 384-well V-bottom plates (Greiner) using a Platemate Plus outfitted with a 384-channel head (Thermo Scientific). DMSO (1 ul) was added to Columns 11, 12, 23, 24, rows A-H for the maximum signal control and 1 ul of SAH, a known product and inhibitor of CARM1, was added to columns 11, 12, 23, 24, rows I-P for the minimum signal control. A cocktail (40 ul) containing the CARM1 enzyme was added by Multidrop Combi (Thermo-Fisher). The compounds were allowed to incubate with CARM1 for 30 min at room temperature, then a cocktail (10 ul) containing ^3H-SAM and peptide was added to initiate the reaction (final volume=51 ul). The final concentrations of the components were as follows: CARM1 was 0.25 nM, ^3H-SAM was 30 nM, peptide was 250 nM, SAH in the minimum signal control wells was 1 mM, and the DMSO concentration was 2%. The assays were stopped by the addition of non-radiolabeled SAM (10 ul) to a final concentration of 300 uM, which dilutes the ^3H-SAM to a level where its incorporation into the peptide substrate is no longer detectable. 50 ul of the reaction in the 384-well polypropylene plate was then transferred to a 384-well Flashplate and the biotinylated peptides were allowed to bind to the streptavidin surface for at least 1 hour before being washed once with 0.1% Tween20 in a Biotek ELx405 plate washer. The plates were then read in a PerkinElmer TopCount plate reader to measure the quantity of ^3H-labeled peptide bound to the Flashplate surface, measured as disintegrations per minute (dpm) or alternatively, referred to as counts per minute (cpm).
where dpm=disintegrations per minute, cmpd=signal in assay well, and min and max are the respective minimum and maximum signal controls.
where top and bottom are the normally allowed to float, but may be fixed at 100 or 0 respectively in a 3-parameter fit. The Hill Coefficient normally allowed to float but may also be fixed at 1 in a 3-parameter fit. Y is the % inhibition and X is the compound concentration.

Human CARM1 (PRMT4), sequence (Q86X55 other isoform, or with tags, fused parts or gaps isoform Q86X55-1): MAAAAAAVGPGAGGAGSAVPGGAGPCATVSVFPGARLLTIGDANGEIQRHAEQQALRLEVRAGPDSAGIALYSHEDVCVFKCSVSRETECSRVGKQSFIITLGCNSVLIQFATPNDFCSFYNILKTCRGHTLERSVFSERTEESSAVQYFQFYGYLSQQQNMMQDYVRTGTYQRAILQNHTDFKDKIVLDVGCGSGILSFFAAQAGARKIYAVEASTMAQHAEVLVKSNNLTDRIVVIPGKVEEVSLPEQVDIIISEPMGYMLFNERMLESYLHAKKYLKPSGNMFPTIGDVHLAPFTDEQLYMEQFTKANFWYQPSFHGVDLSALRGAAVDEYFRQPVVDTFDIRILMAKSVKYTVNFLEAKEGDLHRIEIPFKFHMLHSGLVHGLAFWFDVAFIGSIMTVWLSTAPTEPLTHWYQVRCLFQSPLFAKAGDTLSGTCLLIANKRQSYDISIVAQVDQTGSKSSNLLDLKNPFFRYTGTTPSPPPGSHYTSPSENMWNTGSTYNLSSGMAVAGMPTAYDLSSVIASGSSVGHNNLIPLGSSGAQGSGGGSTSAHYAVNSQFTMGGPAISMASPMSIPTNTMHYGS

| SMILES | IC50 |
| --- | --- |
| CNCC(O)COc1cccc(-c2nc(-c3ccc(OC)c(OC)c3)cc(N(CCOC)CCOC)n2)c1 (stereo not drawn) [Example 64-1] | < 100 nM |
| CNC[C@@H](O)COc1ccc(Cl)c(-c2nc(-c3c(C)noc3C)c(C)c(N3CC4(CCN(C5CC5)C4)C3)n2)c1 [Example 176-3] | < 100 nM |
| CNC[C@@H](O)COc1ccc(Cl)c(-c2nc(OC[C@H]3CCCO3)c(C)c(-c3c(C)noc3C)n2)c1 [Example 116-3] | < 100 nM |
| CNCC(O)COc1cccc(-c2nc(NCC3CCOCC3)c(C)c(-c3c(C)noc3C)n2)c1 (stereo not drawn) [Example 88-1a] | < 100 nM |
| CCOC(=O)N1CCOC[C@H]1CNc1nc(-c2cc(OC[C@@H](O)CNC)ccc2Cl)nc(-c2c(C)noc2C)c1C [Example 24-3] | < 100 nM |
| CCN1CCC[C@@H]1CNc1nc(-c2cc(OC[C@@H](O)CNC)ccc2Cl)nc(-c2c(C)noc2C)c1C [Example 77-3] | < 100 nM |
| CNCC(O)COc1cccc(-c2nc(N[C@@H]3CCOC3)cc(-c3c(C)noc3C)n2)c1 (stereo partly drawn) [Example 11-1a] | < 100 nM |
| CNCC(O)COc1cccc(-c2nc(-c3c(C)noc3C)cc(N3CC[C@H](S(C)(=O)=O)C3)n2)c1 (stereo partly drawn) [Example 69-1a] | < 100 nM |
| CNCC(O)COc1cccc(-c2nc(N[C@@H]3CCOC3)c(C)c(-c3c(C)noc3C)n2)c1 (stereo partly drawn) [Example 66-1a] | < 100 nM |
| CNCC(O)COc1cccc(-c2nc(-c3cnn(CC(C)C)c3)cc(N(C)CCC#N)n2)c1 (stereo not drawn) [Example 41-1] | < 100 nM |
| CNCC(O)COc1cccc(-c2nc(-c3cccnc3)cc(N(C)C3CCOCC3)n2)c1 (stereo not drawn) [Example 32-1] | < 100 nM |
| CNCC(O)COc1cccc(-c2nc(-c3c(C)noc3C)c(C)c(N3CCN4C(=O)OC[C@@H]4C3)n2)c1 (stereo partly drawn) [Example 110-1a] | < 100 nM |
| CNC[C@@H](O)COc1ccc(Cl)c(-c2nc(-c3c(C)noc3C)c(C)c(N3CCC4(C3)CN(C3CC3)C4)n2)c1 [Example 178-3] | < 100 nM |
| CNCC(O)COc1cccc(-c2nc(NCC3CCN(C(=O)OC)CC3)c(C)c(-c3c(C)noc3C)n2)c1 (stereo not drawn) [Example 184-1a] | < 100 nM |
| CNC[C@@H](O)COc1ccc(Cl)c(-c2nc(N[C@@H]3CCN(C4CC4)C[C@@H]3F)c(Cl)c(-c3c(C)noc3C)n2)c1 [Example 211-3] | < 100 nM |
| CNC[C@@H](O)COc1ccc(Cl)c(-c2nc(N[C@H]3CCO[C@@H](C)C3)c(C)c(-c3c(C)noc3C)n2)c1 [Example 128-3] | < 100 nM |

| SMILES | IC50 |
| --- | --- |
| CNCC(O)COc1cccc(-c2nc(Nc3cncnc3)cc(-c3c(C)noc3C)n2)c1 (stereo not drawn) [Example 21-1a] | < 100 nM |
| CNC[C@@H](O)COc1ccc(C(F)(F)F)c(-c2nc(NC3CCOCC3)c(C)c(-c3c(C)noc3C)n2)c1 [Example 200-3] | < 100 nM |
| CNCC(O)COc1cccc(-c2nc(-c3c(C)noc3C)c(C)c(N3CCN(C(=O)OCCOC)CC3)n2)c1 (stereo not drawn) [Example 134-1a] | < 100 nM |
| CNCC(O)COc1cccc(-c2nc(-c3c(C)noc3C)cc(N3CCN(S(C)(=O)=O)[C@H](C)C3)n2)c1 (stereo partly drawn) [Example 147-1a] | < 100 nM |
| CNC[C@@H](O)COc1ccc(Cl)c(-c2nc(-c3c(C)noc3C)c(C)c(N3CC(CO)(CO)C3)n2)c1 [Example 163-3] | < 100 nM |
| CNC[C@@H](O)COc1ccc(Cl)c(-c2nc(N[C@@H]3CCN(C4CC4)[C@H](C)C3)c(C)c(-c3c(C)noc3C)n2)c1 [Example 139-3] | < 100 nM |
| CNCC(O)COc1cccc(-c2nc(-c3c(C)noc3C)c(F)c(N3CCN(C(=O)OC)CC3)n2)c1 (stereo not drawn) [Example 97-1a] | < 100 nM |
| CNC[C@@H](O)COc1ccc(Cl)c(-c2nc(N[C@H]3CCO[C@@H](C)C3)c(Cl)c(-c3c(C)noc3C)n2)c1 [Example 149-3] | < 100 nM |
| CNCC(O)COc1cc(Cl)cc(-c2nc(NC3CCOCC3)cc(-c3c(C)noc3C)n2)c1 (stereo not drawn) [Example 7-1a] | < 100 nM |
| CNCC(O)COc1cccc(-c2nc(-c3c(C)noc3C)cc(N3CCN(CC(F)(F)F)[C@H](C)C3)n2)c1 (stereo partly drawn) [Example 144-1a] | < 100 nM |
| CCS(=O)(=O)N1CCC(Nc2nc(-c3cccc(OCC(O)CNC)c3)nc(-c3c(C)noc3C)c2C)C1 (stereo not drawn) [Example 197-1a] | < 100 nM |
| CCNC(=O)N1CCN(c2nc(-c3cccc(OCC(O)CNC)c3)nc(-c3c(C)noc3C)c2C)CC1 (stereo not drawn) [Example 106-1a] | < 100 nM |
| CNCC(O)COc1cccc(-c2nc(-c3c(C)noc3C)cc(N3CCN[C@@H](C)C3)n2)c1 (stereo partly drawn) [Example 40-1a] | < 100 nM |
| CNC[C@@H](O)COc1ccc(Cl)c(-c2nc(N[C@H]3CCO[C@H](C)C3)c(Cl)c(-c3c(C)noc3C)n2)c1 [Example 197-3] | < 100 nM |
| CNCC(O)COc1cccc(-c2nc(N[C@@H]3CCOC3)c(C)c(N3CC4CN(S(C)(=O)=O)CC4C3)n2)c1 (stereo partly drawn) [Example 11-3] | < 100 nM |

Second part, the molecule after the results:

| IC50 | SMILES |
| --- | --- |
| < 100 nM | CNCC(O)COc1cccc(-c2nc(-c3cncn3C)cc(N(C)C3CCOCC3)n2)c1 (stereo not drawn) [Example 580-1a] |
| < 100 nM | CNCC(O)COc1cc(Cl)cc(-c2nc(-c3cn[nH]c3)c(C)c(N(C)C3CCOCC3)n2)c1 (stereo not drawn) [Example 617-1a] |
| < 100 nM | CNCC(O)COc1cccc(-c2nc(N[C@@H]3CCOC3)c(C)c(-c3cncnc3)n2)c1 (stereo partly drawn) [Example 350-1a] |
| < 100 nM | CNCC(O)COc1cc(Cl)cc(-c2nc(-c3ccncc3)c(C3CC3)c(N(C)C3CCOCC3)n2)c1 (stereo not drawn) [Example 574-1a] |
| < 100 nM | CNC[C@@H](O)COc1ccc(Cl)c(-c2nc(-c3c(C)noc3C)c(C)c(N3CC4(CCC4)C3)n2)c1 [Example 246-3] |
| < 100 nM | CNCC(O)COc1cccc(-c2nc(N[C@@H]3CCOC3)c(C)c(N3CCN(C4CC4)CC3)n2)c1 (stereo partly drawn) [Example 436-1a] |
| < 100 nM | CNCC(O)COc1cccc(-c2nc(N[C@@H]3CCOC3)c(C)c(N3CCN(CC(F)F)[C@H](C)C3)n2)c1 (stereo partly drawn) [Example 471-1a] |
| < 100 nM | CNCC(O)COc1cccc(-c2nc(N[C@@H]3CCNC3)c(C)c(-c3c(C)noc3C)n2)c1 (stereo partly drawn) [Example 307-1a] |
| < 100 nM | CNC[C@@H](O)COc1ccc(Cl)c(-c2nc(-c3c(C)noc3C)c(C)c(N3Cc4cn(C(C)C)nc4C3)n2)c1 [Example 272-3] |
| < 100 nM | CNCC(O)COc1cccc(-c2nc(N(C)C3CCOCC3)cc(N3C[C@@H]4C[C@H]3CN4C)n2)c1 (stereo partly drawn) [Example 543-1a] |
| < 100 nM | CNCC(O)COc1cccc(-c2nc(N[C@@H]3CCOC3)c(C)c(-c3cn[nH]c3)n2)c1 (stereo partly drawn) [Example 338-1a] |
| < 100 nM | CNCC(O)COc1cccc(-c2nc(N[C@@H]3CCOC3)c(C)c(N3Cc4nc(C)sc4C3)n2)c1 (stereo partly drawn) [Example 465-1a] |
| < 100 nM | CNCC(O)COc1cccc(-c2nc(-c3c(C)nn(C(C)C)c3C)cc(N(C)C3CCOCC3)n2)c1 (stereo not drawn) [Example 496-1a] |
| < 100 nM | CNCC(O)COc1cccc(-c2nc(NC3CCOC3)c(C)c(N3CC4(CCNCC4)c4ccccc43)n2)c1 (stereo not drawn) [Example 398-1a] |
| < 100 nM | CNCC(O)COc1cccc(-c2nc(N3CCC[C@H](O)C3)cc(N(C)C3CCOCC3)n2)c1 (stereo partly drawn) [Example 538-1a] |
| < 100 nM | CNCC(O)COc1cccc(-c2nc(N[C@H]3C[C@@H](C(C)(C)O)C3)c(C)c(-c3c(C)noc3C)n2)c1 (stereo partly drawn) [Example 232-1a] |
| < 100 nM | CNC[C@@H](O)COc1ccc(Cl)c(-c2nc(-c3c(C)noc3C)c(C)c(N3Cc4cnn(C5CC5)c4C3)n2)c1 [Example 270-3] |
| < 100 nM | CNCC(O)COc1cccc(-c2nc(-c3cn(S(C)(=O)=O)c4ncncc34)cc(N(C)C3CCOCC3)n2)c1 (stereo not drawn) [Example 483-1a] |
| < 100 nM | CNCC(O)COc1cccc(-c2nc(OCC3CCN(S(C)(=O)=O)CC3)c(C)c(-c3c(C)noc3C)n2)c1 (stereo not drawn) [Example 286-1a] |
| < 100 nM | CCN(CC)c1nc(-c2cccc(OCC(O)CNC)c2)nc(N2CCOCC2)c1C (stereo not drawn) [Example 682-1a] |
